# According to patent publication US11827866B2 (priority 2007, dated 2023):
# Experiments:
# subtilisin = subtilisin (Bacillus licheniformis, UniProt P00780); settings: literature statement, Biochem. Biophys. Res. Com. 176, 1991; cited from earlier work
# protease = format: biochemical; settings: pH 9
# subtilisin, sequence (P00780 106-379): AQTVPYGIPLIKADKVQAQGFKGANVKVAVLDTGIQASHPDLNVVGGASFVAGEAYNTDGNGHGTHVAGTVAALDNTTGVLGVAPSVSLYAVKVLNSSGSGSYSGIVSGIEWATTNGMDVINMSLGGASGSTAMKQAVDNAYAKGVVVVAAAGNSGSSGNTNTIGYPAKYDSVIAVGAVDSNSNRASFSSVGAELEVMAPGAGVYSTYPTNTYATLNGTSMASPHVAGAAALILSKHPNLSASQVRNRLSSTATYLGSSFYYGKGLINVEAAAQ
SMILES,Residual activity (4 weeks at 40° C.) (protease),further results
"OB(O)c1cc(Cl)cc(Cl)c1 [3,5-dichlorophenylboronic acid]",–,capacity as subtilisin inhibitor (subtilisin): particularly effective
[Cl][Al]([Cl])[Cl] [Aluminium Chloride],16%,–
Cl.N [Armonium Chloride],49%,–
N.O=[N+]([O-])O [Armonium Nitrate],41%,–
N.N.O=S(=O)(O)O [Armonium Sulfate],43%,–
[Ca+2].[Cl-].[Cl-] [Calcium Chloride],22%,–
[Cl-].[Cl-].[Mg+2] [Magnesium Chloride],79%,–
O=[N+]([O-])[O-].O=[N+]([O-])[O-].[Mg+2] [Magnesium Nitrate],55%,–
O=S(=O)([O-])[O-].[Mg+2] [Magnesium Sulfate],37%,–
[Cl-].[K+] [Potassium Chloride],34%,–
CC(=O)[O-].[Na+] [Sodium Acetate],20%,–
O=C([O-])[O-].[Na+].[Na+] [Sodium Carbonate],15%,–
[Cl-].[Na+] [Sodium Chloride],32%,–
O=C([O-])CC(O)(CC(=O)[O-])C(=O)[O-].[Na+].[Na+].[Na+] [Sodium Citrate],1%,–
O=C[O-].[Na+] [Sodium Formiate],29%,–
O=[N+]([O-])[O-].[Na+] [Sodium Nitrate],20%,–
O=P(O)(O)O [Sodium Phosphate],13%,–
O=S(=O)([O-])[O-].[Na+].[Na+] [Sodium Sulfate],22%,–
[Cl-].[Cl-].[Zn+2] [Zink Chloride],–,Residual activity (2 weeks at 40° C.) (protease): 102%
O=S(=O)([O-])[O-].[Zn+2] [Zink Sulfate],–,Residual activity (2 weeks at 40° C.) (protease): 88%
CB(O)O [methylboronic acid],–,capacity as subtilisin inhibitor (subtilisin): poorest inhibitor
